“Also recorded” adds a separate entry of the source.
Legend:
[1] = system: oral epithelial keratinocytes of the cell line IMOK; assay: Immunocytochemistry of marker expression in treated IMOK oral epithelial keratinocytes; format: cell-based, mouse
Description: In the studies described below, the ameloblast-like cells originated from oral epithelial keratinocytes. We employed the cell line IMOK, an immortalized oral keratinocyte cell line of mouse origin, which was a gift from Dr. Garrett-Sinha (SUNY-Buffalo; Parikh et al., Arc. Oral Biol. 53:1091-1100, 2008).
To thaw frozen IMOK cells, we removed a cryovial containing 10^6 frozen cells from liquid nitrogen storage, immediately placed it into a 37° C. water bath, and gently swirled the vial. When the cells were thawed, we transferred the vial into a laminar flow hood, and added 10 ml of pre-warmed serum free CnT-02 growth medium (CELLNTEC; FPS 1:1000 added to the medium). We centrifuged the cell suspension (˜1000 rpm for 4 minutes) then checked the vial visually for the presence of a complete pellet. The supernatant was aseptically decanted without disturbing the cell pellet, which we gently resuspended in 7 ml of CnT-02 medium. We transferred the resuspended cells into a T25 flask and incubated it at 37° C. with a humidified atmosphere of 5% CO2 The medium was changed every other day, and when the cells became 90% confluent, we split them 1:5 and plated them in a 12-well plate as follows. After discarding the culture medium from the flask, we washed the cells with PBS then added 2 mL of a pre-warmed dissociation reagent (TrypLE; GIBCO), gently shaking the flask to completely cover the cell layer. We transferred the flask to the incubator (37° C., 5% CO2) for 20 minutes, checking under a microscope every 5 minutes for dissociation of the cells. When ≥90% of the cells detached, we added 8 ml of pre-warmed CnT-02 growth medium (CELLNTEC), dispersing it with a pipette over the cell layer surface several times. The cell suspension was transferred to a 50 ml conical tubed and centrifuged (1000 rpm for 4 minutes). We resuspended the cell pellet in 5 ml of pre-warmed serum free CnT-02 growth medium (CELLNTEC) and split the cells in 1:5 ratios. We diluted the cell suspension plate and pipetted the appropriate volume into new 12-well plates, returning the cells to the incubator (37° C., 5% CO2).
We added the vehicle (4 mM HCl+1 mg/mL BSA) to the control side and TGFβ1 (5 ng/mL) to the experimental side and mixed gently. We changed the medium every other day for 10 days. To fix the cells, we aspirated the medium, washed the cells with PBS then fixed them with 100% methanol for 20 minutes. Following fixation, we washed the fixed cells with PBS (×3) and stored them at 4° C.
Immunocytochemistry General Protocol: (1) wash sample slide in 0.15 M PBS (pH 7.2; 4×5 minutes); (2) incubate in 4% Normal Goat Serum (NGS) for 20 minutes (2 ml of 0.15 M PBS+80 μL NGS); (3) incubate with the primary antibody solution (details below; 90 minutes); (4) wash with […] (3 times×10 minutes); (5) block with 4% NGS in 0.15 M PBS (20 minutes); (6) incubate with the secondary antibody (Biotin-SP-conjugated goat anti-rabbit IgG; 60 minutes); (7) wash with 0.15 M PBS (3 times×10 minutes); (8) prepare and incubate in ABC solution (details below; 60 minutes (5 mL of 0.15 M PBS+ABC solution 600 μL); (9) wash with 0.1 M AI buffer (175 mM sodium acetate and 10 mM imidazole, pH 7.2) for 3 times×10 minutes [14.35 g sodium acetate, 0.68 g imidazole in 1000 mL H2O]; (10) carry out DAB reaction for 5-20 minutes, checking often; and (11) wash for 15 minutes in 0.05 M PBS with 0.04% TritonX-100 to stop the reaction.
The primary antibody solution contains 0.15 M PBS with 0.5% Triton X-100; 4% NGS in [0.15 M PBS with 0.5% TritonX-100; and the primary antibody at a 1:500 dilution (2 mL PBS+0.04% Tx 100+80 μL NGS+4 μL primary antibody). The secondary antibody solution contains 0.15 M PBS with 0.5% Triton X-100 and the secondary antibody at a 1:2500 dilution (Goat anti Rabbit IgG) [2 ml PBS+0.04% Tx 100+0.8 uL GαR]. To prepare the ABC (Avidin Biotin Complex) solution, add 1 drop of A, 1 drop of B, to 500 μL of 0.15 M PBS in an Eppendrof tube. […]

developing tooth buds = details: serotonin added to organotypic cultures; reversed with antagonists; cited from earlier work
[2] = IMOK cells before and after TGFβ1 treatment
[3] = IMOK cells, TGFβ1 5 ng/ml, 10 days, immunocytochemistry

Molecule	amelogenin induction at 10 μM serotonin ([1]; 10 μM serotonin for 10 days)	amelogenin expression after serotonin treatment ([1]; IMOK cells pre-treated with TGFβ1, then further treated with serotonin)	effect on tooth development (developing tooth buds)	Oct4 expression [1, 2]	collagen1 expression [1, 2]	amelogenin expression after TGFβ1 treatment alone ([1]; IMOK cells before and after TGFβ1 treatment, no serotonin)	E-cadherin expression [1, 3]	N-cadherin expression [1, 3]	cell morphology after treatment ([1]; IMOK cells, TGFβ1 treatment versus confluent control)
NCCc1c[nH]c2ccc(O)cc12 [serotonin, reference compound]	induction of amelogenin	induction of amelogenin expression; also recorded: express amelogenin	accelerated tooth development	–	–	–	–	–	–
TGFβ1: recombinant human transforming growth factor β1 (R&D system) used as dedifferentiation agent	–	–	–	acquire the expression of Oct4	lose the expression of collagen1	do not express amelogenin	lost and reduction in E-cadherin expression and loss of E-cadherin expression	gained; also recorded: increase in N-cadherin expression; also recorded: induced	cells enlarge in size, separate and spread out

From patent US10350147B2, “Enamel products and methods of use” (The Research Foundation for The State University of New York, priority 2014, dated 2019)
